Here are results for one compound from patent publication US12318452B2, “Degraders of WEE1 kinase” (DANA-FARBER CANCER INSTITUTE, INC., priority 2018, dated 2025).

The structures appear in SMILES notation.

The subject of this assay is MCF10A cells. Description: Image-based cell cycle assay in non-transformed mammary epithelial cells. The note with it: data not shown. The protocol:
HCC1806, BT549, and Kuramochi cells were maintained in RPMI (Corning®, Corning, NY) supplemented with 10% fetal bovine serum (FBS) (Life Technologies™, Carlsbad, CA) and 1% penicillin/streptomycin (Corning, Corning®, NY). OVCAR8 cells were maintained as above with the addition of 2 mM L-glutamine (Life Technologies™, Carlsbad, CA). MCF10A cells were maintained in a 1:1 mix of DMEM:F12 supplemented with 5% horse serum (Life Technologies™ Carlsbad, CA), 1% penicillin/streptomycin (Corning®, Corning, NY), 20 ng/ml EGF (Peprotech®, Rocky Hill, NJ), 500 ng/ml hydrocortisone (Sigma-Aldrich®, St. Louis, MO), 10 μg/ml insulin (Sigma-Aldrich®, St. Louis, MO), and 100 ng/ml cholera toxin (Sigma-Aldrich®, St. Louis, MO). COV362 cells were maintained in DMEM (Corning®, Corning, NY) supplemented with 10% FBS (Life Technologies™, Carlsbad, CA), 1% penicillin/streptomycin (Corning®, Corning, NY) and 2 mM L-glutamine (Life Technologies™, Carlsbad, CA). The OCE1 cells were maintained in FOMI (Wit-Fo) (PMID: 24303006) supplemented with 25 ng/ml cholera toxin (Sigma-Aldrich®, St. Louis, MO). […]
Fixed cells were imaged with a 10× objective using an Operetta microscope and analyzed using the Columbus image data storage and analysis system (PerkinElmer®, Waltham, MA). […] The average LDR, EdU and phospho-histone H3 intensities within the nuclear masks were determined. […]

In the case of `C=CCn1c(=O)c2cnc(Nc3ccc(N4CCN(CCCNc5cccc6c5C(=O)N(C5CCC(=O)NC5=O)C6=O)CC4)cc3)nc2n1-c1cccc(C(C)(C)O)n1` (stereo not shown) [Compound 13, 4-((3-(4-(4-((2-allyl-1-(6-(2-hydroxypropan-2-yl)pyridin-2-yl)-3-oxo-2,3-dihydro-1H-pyrazolo[3,4-d]pyrimidin-6-yl)amino)phenyl)piperazin-1-yl)propyl)amino)-2-(2,6-dioxopiperidin-3-yl)isoindoline-1,3-dione], the “Effect on mitotic cell number” value is on record as “very little effect”.
